Test results reported in PubChem BioAssay AID434987 (Southern Research Specialized Biocontainment Screening …, 2010).
Activity calls are given as the source filed them. No rule for the calls is given here.

Test system: M. tuberculosis H37Rv growth inhibition with meropenem
Experiment: dose response, H37Rv, with and without meropenem (AID 434987);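 also: growth over 7 days at 37 °C before Alamar Blue read on day 9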
[1] = M. tuberculosis H37Rv growth inhibition, measured here: IC50 without meropenem
[2] = M. tuberculosis H37Rv growth inhibition, measured here: IC90 without meropenem
[3] = measured here: IC90 with meropenem

Structure (SMILES) | IC50 | IC50 [1] [µM] | IC90 [2] [µM] | IC90 [3] [µM]
COc1ccc(C(=O)/C=C/c2ccc(O)cc2)c(O)c1CC=C(C)C | 54.3 µM (inactive) | 64.8 | 98.4 | 75.1
COC(=O)c1cc(OC)c(OC)cc1NC(=S)N1CCN(C)CC1 | > 100 µM (inactive) | > 100 | > 100 | > 100
Cc1ccc(OCC(=O)N/N=C/c2cn(C)c3ccccc23)cc1 | 24.7 µM | > 100 | > 100 | > 100
COc1ccc(C(=O)Nc2ccccc2C(=O)NC(C(=O)NCc2ccco2)C(C)C)cc1 (stereo not given) | > 100 µM (inactive) | > 100 | > 100 | > 100
S=C(Nc1ccccc1)Nc1ccc(Cl)cn1 | 4.68 µM | 90.6 | > 100 | > 100
O=C(COc1ccccc1)Nc1cccc(-c2nnc(-c3ccccc3)o2)c1 | > 100 µM (inactive) | > 100 | > 100 | > 100
COc1cc(OC)c2ccc(=O)oc2c1C(CC(=O)N1CCN(c2ccccc2)CC1)c1ccc2c(c1)OCO2 (stereo not given) | 91.1 µM (inactive) | > 100 | > 100 | > 100
COc1ccccc1C(=O)Nc1sc2c(c1C(=O)NCc1ccco1)CCCC2 | > 100 µM (inactive) | > 100 | > 100 | > 100
Cc1nc(SCC(=O)NCc2ccco2)c2c3c(sc2n1)CCCC3 | > 100 µM (inactive) | > 100 | > 100 | > 100
CSc1ccc(-c2nnn(CC(=O)NCc3ccccc3)n2)cc1 | 15.8 µM | > 100 | > 100 | > 100
Cc1ccc2nc(-c3ccc(NC(=S)NC(=O)C(C)C)cc3)sc2c1 | > 100 µM (inactive) | > 100 | > 100 | > 100
Cc1cc(C(=O)Nc2nnc(-c3ccccc3)s2)no1 | 45.1 µM (inactive) | 48.4 | > 100 | > 100
CCOCC(=O)Nc1cc(C(F)(F)F)ccc1Oc1cccc(Br)c1 | 56.9 µM (inactive) | > 100 | > 100 | > 100
COC(=O)c1ccc(/C=N/NC(=O)c2cccc(F)c2)cc1 | > 100 µM (inactive) | > 100 | > 100 | > 100
CCOc1ccccc1C(=O)Nc1cccc(-c2ccc3nncn3n2)c1 | 65.3 µM (inactive) | > 100 | > 100 | > 100
CCC(C)Nc1c2c(nc3c(-c4ccccc4)c(C)nn13)CCC2 (stereo not given) | > 100 µM (inactive) | > 100 | > 100 | > 100
O=C(Nc1ccccc1N1CCCC1)c1ccc2c(c1)OCO2 | 72.3 µM (inactive) | 87.3 | > 100 | > 100
COc1ccccc1C(=O)Nc1ccc2c3c(cccc13)CC2 | 8.08 µM | 35.9 | > 50 | > 100
OC1C(O)C(O)C(O)C(O)C1O (stereo not given) | > 100 µM (inactive) | > 100 | > 100 | > 100
Cc1nnc(SCc2ccc(C(=O)Nc3cc(Cl)ccc3C)cc2)s1 | > 100 µM (inactive) | > 100 | > 100 | > 100
Cn1c(/C=N/c2nc3ccccc3[nH]2)nc2ccccc21 | < 0.2 µM | 3.82 | > 100 | 4.17
CCOC(=O)c1ccc(-c2ccc(C=O)o2)cc1 | 29.1 µM (inactive) | 44.6 | > 100 | > 100
S=C(Nc1ccccc1Cl)N1CCCC(c2ccccc2)=N1 | > 100 µM (inactive) | 68.9 | 87.8 | > 100
C/C(CC(=O)NCc1ccco1)=N\NC(=O)CC#N | 4.68 µM | 43.3 | > 100 | 17.6
CCCCOc1ccc(/C=N/Nc2cc(N3CCOCC3)nc(C)n2)cc1 | > 100 µM (inactive) | > 100 | > 100 | > 100
Cc1n[nH]c(C)c1CCCOc1ccccc1 | 24.1 µM (inactive) | 39.5 | > 100 | > 100
CCOC(=O)c1c(NC(=O)C(=O)N/N=C/c2ccccc2OC)sc2c1CCCCC2 | > 100 µM (inactive) | > 100 | > 100 | > 100
C=CCSc1nnc(-c2cc3c(-c4ccccc4)nn(C)c3s2)n1C | 26 µM (inactive) | 52.4 | 92 | > 100
O=C(CCN1CCOCC1)c1ccc(N2CCCCC2)cc1 | 14 µM (inactive) | 27.5 | 37.3 | 72.7
O=C(COC(=O)c1ccc([N+](=O)[O-])s1)NCc1ccc(F)cc1 | 37.9 µM (inactive) | 56.6 | > 100 | > 100
